Test results: patent US20160016907A1, “PYRIDINE DERIVATIVES AS MUSCARINIC M1 RECEPTOR POSITIVE ALLOSTERIC MODULATORS” (PFIZER INC., priority 2014, published 2016)
Counter-ions that a name gives are not always drawn.

Target: T1, human M1 muscarinic acetylcholine receptors (Homo sapiens, UniProt P11229)
T1 sequence (P11229 1-460): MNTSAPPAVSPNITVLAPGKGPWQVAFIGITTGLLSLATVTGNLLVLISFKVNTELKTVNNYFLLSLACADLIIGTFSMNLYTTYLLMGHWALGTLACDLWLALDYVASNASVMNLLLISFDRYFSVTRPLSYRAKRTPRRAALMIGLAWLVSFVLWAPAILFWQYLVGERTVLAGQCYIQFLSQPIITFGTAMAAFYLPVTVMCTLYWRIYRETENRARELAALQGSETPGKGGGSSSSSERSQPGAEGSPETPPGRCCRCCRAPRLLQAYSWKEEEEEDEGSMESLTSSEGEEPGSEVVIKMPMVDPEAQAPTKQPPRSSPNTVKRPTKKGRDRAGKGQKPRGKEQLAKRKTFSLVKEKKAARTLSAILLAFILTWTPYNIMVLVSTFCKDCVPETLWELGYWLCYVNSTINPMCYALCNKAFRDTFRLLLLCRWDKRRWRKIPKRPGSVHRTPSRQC
Assay: M1 FLIPR assay (PAM, intracellular calcium)
Type: cell-based
Settings: potentiation of EC10-EC30 acetylcholine, values marked a: geometric mean of ≧7 determinations, read-out: M1 PAM Inflection Point (μM) Geometric mean of 2-6 determinations (unless otherwise indicated)
Procedure: This assay was designed to select and characterize compounds that affect the activity of human M1 muscarinic acetylcholine receptors (Similar M1 PAM FLIPR assays can be found, for example, at U.S. Pat. No. 8,664,234). Human M1 receptors were stably expressed in Chinese hamster ovary (CHO) cells (HD Bioscience). The effect of test compounds on intracellular calcium was measured on an FLIPR Tetra (Molecular Devices) using the Fluo-8, AM calcium dye (Molecular Probes) with a red dye quenching agent (Sigma).
CHO cells expressing hM1 cells had been previously cultured and frozen in assay ready vials. Cell vials were thawed, then plated at a density of 10,000 cells per well in a 384 well black wall, clear bottom plate (Greiner #781090) and incubated overnight at 37 degrees C. with 5% CO2. Cells were grown and plated in F12 nutrient media (Gibco BRL #21700-075) supplemented with 10% FBS (Hyclone #CH30160.03) and Pen/Strep (Gibco #15070-063).
After overnight incubation, cell plates were removed from the incubator and the growth media was discarded and replaced with loading solution containing the following: 2 μM Fluo-8-AM (Molecular Probes #F14242), 2 mM Probenecid (Sigma #P8761), lx Acid Red 1 (Sigma #210633), in HBSS buffer containing (grams/L): 0.1 CaCl2, 0.1 MgCl2*6H2O, 0.049 MgSO4, 0.4 KCl, 0.06 KH2PO4, 8.06 NaCl, 0.12 Na2HPO4*12H2O, 1.1 D-glucose*H2O, 0.35 NaHCO3, 4.766 HEPES, pH 7.4. The plate was incubated in the loading solution at 37 degrees C. in the dark for 1 hour.
Test compounds were initially prepared as 100% DMSO stock solutions, then transferred and serially diluted in 384-well compound plates (Greiner #784201). Each compound was tested at 10 concentrations in duplicate per experiment. Positive and negative controls for positive allosteric modulator evaluation were 30 μM acetylcholine (Ach) and an EC10-EC30 concentration of acetylcholine, approximately 2 nM but could be adjusted for each experiment to maintain the EC10-EC30 range.
After the 1-hour dye loading incubation, test compounds were added to the cell plate containing Fluo-8. Approximately 10 minutes after compound addition, an EC10-EC30 concentration of acetylcholine was added to each well and the fluorescence measured to determine the PAM potentiation of the compound.
Data was exported from the FLIPR Tetra as maximum fluorescence/minimum fluorescence for each well. The percent effect for each compound well was determined using the mean values for the positive and negative controls on each plate for each read. Percent effect was 100*(compound negative control)/(positive control negative control). Dose response curves were fitted to the compound percent effect data using a 4-parameter logistic fit model to determine PAM (positive allosteric modulator) Inflection Point values. Compounds with inverted U dose response curves had the concentrations greater than the concentration giving the peak response excluded from the fit. Data was reported as Inflection Point. The compounds of Examples 1-72 had activity according to this assay, generally with an Inflection Point (IP) of 10 μM or less (using Inflection Point as a measure of activity). Such a result is indicative of the intrinsic activity of the compounds of the invention as M1 allosteric modulators.

Row | SMILES | EC50
1 | Cc1cnc(C(=O)NC2CCCC2O)cc1Cc1ccc(-n2cccn2)cc1 (racemic) [Example 34, N-[trans-2-hydroxycyclopentyl]-5-methyl-4-[4-(1H-pyrazol-1-yl)benzyl]pyridine-2-carboxamide] | 1.02 µM
2 | Cc1cnc(C(=O)NC2CCCC2O)cc1Cc1ccc(-n2cccn2)cc1 (racemic) [Example 49, N-[cis-2-hydroxycyclopentyl]-5-methyl-4-[4-(1H-pyrazol-1-yl)benzyl]pyridine-2-carboxamide] | 1.63 µM
3 | Cc1nnc(-c2ccc(Cc3cc(C(=O)NC4CCOCC4O)ncc3C)cc2)o1 (single isomer, unassigned) [Example 20] | > 9.94 µM
4 | Cc1nnc(-c2ccc(Cc3cc(C(=O)NC4CCOCC4O)ncc3C)cc2)o1 (single isomer, unassigned) [Example 21] | 1.95 µM
5 | Cc1cnc(C(=O)NC2CCCCC2(F)F)cc1Cc1ccc(-n2cccn2)cc1 (single isomer, unassigned) [Example 46] | 1.22 µM
6 | Cc1cnc(C(=O)NC2CCCCC2(F)F)cc1Cc1ccc(-n2cccn2)cc1 (single isomer, unassigned) [Example 47] | 0.57 µM
7 | Cc1cnc(C(=O)N[C@H]2CCCC[C@@H]2O)cc1C(F)c1ccc(-n2cccn2)cc1 (single isomer, unassigned) [Example 63] | 8.76 µM
8 | Cc1cnc(C(=O)NC2CCCCC2O)cc1Cc1ccc(-n2cccn2)cc1 (single isomer, unassigned; (+)) [Example 13, (+)-N-[(1,2-cis)-2-Hydroxycyclohexyl]-5-methyl-4-[4-(1H-pyrazol-1-yl)benzyl]pyridine-2-carboxamide] | 1.46 µM
9 | Cc1nc(-c2ccc(Cc3cc(C(=O)NC4CCOCC4O)ncc3C)cc2)co1 (single isomer, unassigned; (-)) [Example 10, (−)-N-[(3,4-trans)-3-Hydroxytetrahydro-2H-pyran-4-yl]-5-methyl-4-[4-(2-methyl-1,3-oxazol-4-yl)benzyl]pyridine-2-carboxamide] | 6.34 µM
10 | Cc1cnc(C(=O)NC2CCCCC2O)cc1Cc1ccc(-n2cccn2)cc1 (single isomer, unassigned; (-)) [Example 12, (−)-N-[(1,2-cis)-2-Hydroxycyclohexyl]-5-methyl-4-[4-(1H-pyrazol-1-yl)benzyl]pyridine-2-carboxamide] | 0.96 µM
11 | Cc1cnc(C(=O)N[C@H]2CCOC[C@@H]2O)cc1C(F)c1ccc(-c2cscn2)cc1 (single isomer, unassigned; diastereomer 1) [Example 59] | 1.83 µM
12 | Cc1cnc(C(=O)NC2CCOCC2O)cc1Cc1ccc(-c2cncs2)cc1 (single isomer, unassigned; ent-1) [Example 4, N-[(3,4-trans)-3-Hydroxytetrahydro-2H-pyran-4-yl]-5-methyl-4-[4-(1,3-thiazol-5-yl)benzyl]pyridine-2-carboxamide, ENT-1] | 8.11 µM
13 | Cc1cnc(C(=O)N[C@@H]2CCOC[C@H]2O)cc1Cc1ccc(-n2cccn2)cc1 [Example 8, N-[(3S,4R)-3-Hydroxytetrahydro-2H-pyran-4-yl]-5-methyl-4-[4-(1H-pyrazol-1-yl)benzyl]pyridine-2-carboxamide] | 4.86 µM
14 | Cc1cnc(C(=O)NC[C@@H]2CCCO2)cc1Cc1ccc(-n2cccn2)cc1 [Example 16, 5-Methyl-4-[4-(1H-pyrazol-1-yl)benzyl]-N-[(2S)-tetrahydrofuran-2-ylmethyl]pyridine-2-carboxamide, formate salt] | 1.82 µM
15 | Cc1nc(C(=O)N[C@H]2CCCC[C@@H]2O)cc(Cc2ccc(-n3cccn3)cc2)c1Cl [Example 17, 5-Chloro-N-[(1S,2S)-2-hydroxycyclohexyl]-6-methyl-4-[4-(1H-pyrazol-1-yl)benzyl]pyridine-2-carboxamide] | 0.191 µM
16 | Cc1nc(-c2ccc(Cc3cc(C(=O)N[C@H]4CCOC[C@@H]4O)ncc3C)cc2)no1 [Example 19, N-[(3R,4S)-3-hydroxytetrahydro-2H-pyran-4-yl]-5-methyl-4-[4-(5-methyl-1,2,4-oxadiazol-3-yl)benzyl]pyridine-2-carboxamide] | 5.57 µM

Compounds with a lower EC50, results first:

Row | EC50 | SMILES
17 | 0.18 µM | Cc1cnc(C(=O)NC2CCOCC2O)cc1Cc1ccc(-c2cncs2)cc1 (single isomer, unassigned; ent-2) [Example 5, N-[(3,4-trans)-3-Hydroxytetrahydro-2H-pyran-4-yl]-5-methyl-4-[4-(1,3-thiazol-5-yl)benzyl]pyridine-2-carboxamide, ENT-2]
18 | 0.146 µM | Cc1nc(-c2ccc(Cc3cc(C(=O)NC4CCOCC4O)ncc3C)cc2)co1 (single isomer, unassigned; (+)) [Example 11, (+)-N-[(3,4-trans)-3-Hydroxytetrahydro-2H-pyran-4-yl]-5-methyl-4-[4-(2-methyl-1,3-oxazol-4-yl)benzyl]pyridine-2-carboxamide]
19 | 0.142 µM | Cc1cnc(C(=O)N[C@H]2CCOC[C@@H]2O)cc1Cc1ccc(-c2ccn(C)n2)cc1 [Example 6, N-[(3R,4S)-3-Hydroxytetrahydro-2H-pyran-4-yl]-5-methyl-4-[4-(1-methyl-1H-pyrazol-3-yl)benzyl]pyridine-2-carboxamide]
20 | 0.125 µM | Cc1cnc(C(=O)N[C@H]2CCOC[C@@H]2O)cc1Cc1ccc(-c2cnn(C)c2)cc1F [Example 2, 4-[2-Fluoro-4-(1-methyl-1H-pyrazol-4-yl)benzyl]-N-[(3R,4S)-3-hydroxytetrahydro-2H-pyran-4-yl]-5-methylpyridine-2-carboxamide]
21 | 0.116 µM | Cc1nc(C(=O)N[C@H]2CCOC[C@@H]2O)cc(Cc2ccc(-n3cccn3)cc2)c1Cl [Example 14, 5-Chloro-N-[(3R,4S)-3-hydroxytetrahydro-2H-pyran-4-yl]-6-methyl-4-[4-(1H-pyrazol-1-yl)benzyl]pyridine-2-carboxamide]
22 | 0.109 µM | Cc1cnc(C(=O)N[C@H]2CCOC[C@@H]2O)cc1Cc1ccc(-n2cccn2)cc1 [Example 9, N-[(3R,4S)-3-Hydroxytetrahydro-2H-pyran-4-yl]-5-methyl-4-[4-(1H-pyrazol-1-yl)benzyl]pyridine-2-carboxamide]
23 | 0.101 µM | Cc1cnc(C(=O)N[C@H]2CCOC[C@@H]2O)cc1Cc1ccc(-c2nccs2)cc1 [Example 3, N-[(3R,4S)-3-Hydroxytetrahydro-2H-pyran-4-yl]-5-methyl-4-[4-(1,3-thiazol-2-yl)benzyl]pyridine-2-carboxamide]
24 | 0.092 µM | Cc1cnc(C(=O)N[C@H]2CCCC[C@@H]2O)cc1Cc1ccc(-n2cccn2)cc1 [Example 18, N-[(1S,2S)-2-Hydroxycyclohexyl]-5-methyl-4-[4-(1H-pyrazol-1-yl)benzyl]pyridine-2-carboxamide]
25 | 0.065 µM | COc1cnc(C(=O)N[C@H]2CCOC[C@@H]2O)cc1Cc1ccc(-n2cccn2)cc1 [Example 15, N-[(3R,4S)-3-Hydroxytetrahydro-2H-pyran-4-yl]-5-methoxy-4-[4-(1H-pyrazol-1-yl)benzyl]pyridine-2-carboxamide]
26 | 0.06 µM | Cc1cnc(C(=O)N[C@H]2CCOC[C@@H]2O)cc1Cc1ccc(-c2cscn2)cc1 [Example 7, N-[(3R,4S)-3-Hydroxytetrahydro-2H-pyran-4-yl]-5-methyl-4-[4-(1,3-thiazol-4-yl)benzyl]pyridine-2-carboxamide]
27 | 0.033 µM | Cc1cnc(C(=O)N[C@H]2CCCC[C@@H]2O)cc1C(F)c1ccc(-n2cccn2)cc1 (single isomer, unassigned) [Example 64]
